Source: ChEMBL document CHEMBL4311986, “Synthesis and biological evaluation of new multi-target 3-(1H-indol-3-yl)pyrrolidine-2,5-dione derivatives with potential antidepressant effect” (Eur J Med Chem, 2019)

Key:
[1] = molecular target: T1, 5-hydroxytryptamine receptor 1A (Homo sapiens, UniProt P08908); test: biochemical
T1 sequence (P08908 whole entry): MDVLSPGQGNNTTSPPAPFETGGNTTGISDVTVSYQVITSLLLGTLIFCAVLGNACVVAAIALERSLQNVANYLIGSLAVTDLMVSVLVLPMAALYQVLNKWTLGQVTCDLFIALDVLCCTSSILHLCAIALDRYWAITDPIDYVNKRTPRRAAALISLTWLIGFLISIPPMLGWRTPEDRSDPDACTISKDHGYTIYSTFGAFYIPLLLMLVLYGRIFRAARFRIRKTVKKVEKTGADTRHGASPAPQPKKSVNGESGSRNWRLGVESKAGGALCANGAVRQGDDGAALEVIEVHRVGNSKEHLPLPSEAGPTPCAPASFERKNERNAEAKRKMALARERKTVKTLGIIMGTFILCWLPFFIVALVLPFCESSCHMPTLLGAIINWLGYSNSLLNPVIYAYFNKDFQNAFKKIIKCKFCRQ

[2] = molecular target: Sodium-dependent serotonin transporter (Homo sapiens, UniProt P31645); test: Displacement of [3H]-imipramine from human serotonin transporter expressed in HEK293 cells membranes incubated for 30 mins by microbeta scintillation counting analysis; type: cell membranes
[3] = molecular target: 5-hydroxytryptamine receptor 7 (Homo sapiens, UniProt P34969); test: Displacement of [3H]-5-CT from human 5HT7 receptor expressed in HEK293 cells incubated for 1 hr by liquid scintillation counting method; type: cell-based
Mus musculus [4] = test: Induction of hypothermia in CD-1 mouse assessed as change in body temperature at 5 mg/kg, ip measured after 60 mins by thermometric method; type: functional, organism-based
Mus musculus [5] = test: Induction of hypothermia in CD-1 mouse assessed as change in body temperature at 20 mg/kg, ip measured after 30 mins by thermometric method; type: functional, organism-based
[6] = molecular target: 5-hydroxytryptamine receptor 6 (Homo sapiens, UniProt P50406); test: Displacement of [3H]-LSD from human 5-HT6 receptor expressed in HEK293 cells incubated for 1 hr by liquid scintillation counting method; type: cell-based
[7] = Half life in human liver microsomes at 1 uM measured for 5 to 30 mins in presence of NADPH by LC-MS/MS analysis; type: ADME, Microsome
Mus musculus [8] = test: Induction of hypothermia in CD-1 mouse assessed as change in body temperature at 20 mg/kg, ip measured after 120 mins by thermometric method; type: functional, organism-based
Mus musculus [9] = test: Induction of hypothermia in CD-1 mouse assessed as change in body temperature at 10 mg/kg, ip measured after 60 mins by thermometric method; type: functional, organism-based
Mus musculus [10] = test: Induction of hypothermia in CD-1 mouse assessed as change in body temperature at 10 mg/kg, ip measured after 90 mins by thermometric method; type: functional, organism-based
Mus musculus [11] = test: Induction of hypothermia in CD-1 mouse assessed as change in body temperature at 10 mg/kg, ip pretreated for 30 mins with 5-HT1AR antagonist WAY100635 followed by compound treatment and measured after 30 mins by thermometric method; type: functional, organism-based
D(2) dopamine receptor = D(2) dopamine receptor (Homo sapiens, UniProt P14416); test: Displacement of [3H]-raclopride from human D2L receptor expressed in HEK293 cells incubated for 1 hr by liquid scintillation counting method; type: cell-based
Mus musculus [12] = test: Induction of hypothermia in CD-1 mouse assessed as change in body temperature at 20 mg/kg, ip measured after 60 mins by thermometric method; type: functional, organism-based
Mus musculus [13] = test: Induction of hypothermia in CD-1 mouse assessed as change in body temperature at 10 mg/kg, ip measured after 30 mins by thermometric method; type: functional, organism-based
Mus musculus [14] = test: Induction of hypothermia in CD-1 mouse assessed as change in body temperature at 10 mg/kg, ip pretreated for 60 mins with 5-HT1AR antagonist WAY100635 followed by compound treatment and measured after 30 mins by thermometric method; type: functional, organism-based
Mus musculus [15] = test: Induction of hypothermia in CD-1 mouse assessed as change in body temperature at 10 mg/kg, ip measured after 120 mins by thermometric method; type: functional, organism-based
Mus musculus [16] = test: Induction of hypothermia in CD-1 mouse assessed as change in body temperature at 5 mg/kg, ip measured after 30 mins by thermometric method; type: functional, organism-based
Mus musculus [17] = test: Induction of hypothermia in CD-1 mouse assessed as change in body temperature at 5 mg/kg, ip measured after 90 mins by thermometric method; type: functional, organism-based
Mus musculus [18] = test: Induction of hypothermia in CD-1 mouse assessed as change in body temperature at 20 mg/kg, ip measured after 90 mins by thermometric method; type: functional, organism-based
Mus musculus [19] = test: Induction of hypothermia in CD-1 mouse assessed as change in body temperature at 5 mg/kg, ip measured after 120 mins by thermometric method; type: functional, organism-based

Sequence of Sodium-dependent serotonin transporter (P31645 whole entry): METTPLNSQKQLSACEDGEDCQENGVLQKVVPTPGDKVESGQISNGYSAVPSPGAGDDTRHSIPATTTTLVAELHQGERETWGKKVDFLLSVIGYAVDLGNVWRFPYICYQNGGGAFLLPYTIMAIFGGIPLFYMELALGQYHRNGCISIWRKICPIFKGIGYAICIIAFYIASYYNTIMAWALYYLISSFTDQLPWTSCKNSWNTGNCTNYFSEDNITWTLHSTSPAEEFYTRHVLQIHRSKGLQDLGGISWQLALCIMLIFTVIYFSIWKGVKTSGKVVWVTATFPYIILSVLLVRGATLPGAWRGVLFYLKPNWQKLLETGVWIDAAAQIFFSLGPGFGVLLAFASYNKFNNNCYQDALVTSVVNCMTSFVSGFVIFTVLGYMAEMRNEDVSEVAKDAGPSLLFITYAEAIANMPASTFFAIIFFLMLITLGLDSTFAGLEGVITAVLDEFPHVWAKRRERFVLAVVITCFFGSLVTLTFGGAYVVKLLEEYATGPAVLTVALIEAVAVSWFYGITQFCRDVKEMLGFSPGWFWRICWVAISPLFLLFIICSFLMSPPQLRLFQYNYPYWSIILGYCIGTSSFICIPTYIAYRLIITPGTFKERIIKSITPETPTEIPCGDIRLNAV
Sequence of 5-hydroxytryptamine receptor 7 (P34969 whole entry): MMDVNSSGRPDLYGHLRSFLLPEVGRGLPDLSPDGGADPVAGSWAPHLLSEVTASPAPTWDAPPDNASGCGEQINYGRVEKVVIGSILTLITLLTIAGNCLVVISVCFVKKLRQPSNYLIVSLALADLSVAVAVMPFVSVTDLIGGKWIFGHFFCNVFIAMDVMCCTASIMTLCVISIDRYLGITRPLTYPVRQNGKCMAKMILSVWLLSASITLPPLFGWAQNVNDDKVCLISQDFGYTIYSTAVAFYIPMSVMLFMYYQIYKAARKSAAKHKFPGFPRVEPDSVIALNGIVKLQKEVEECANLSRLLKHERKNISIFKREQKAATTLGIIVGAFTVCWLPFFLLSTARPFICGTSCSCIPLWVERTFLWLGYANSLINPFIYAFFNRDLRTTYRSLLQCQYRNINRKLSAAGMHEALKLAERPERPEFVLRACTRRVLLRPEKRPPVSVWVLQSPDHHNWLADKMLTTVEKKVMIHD
Sequence of 5-hydroxytryptamine receptor 6 (P50406 whole entry): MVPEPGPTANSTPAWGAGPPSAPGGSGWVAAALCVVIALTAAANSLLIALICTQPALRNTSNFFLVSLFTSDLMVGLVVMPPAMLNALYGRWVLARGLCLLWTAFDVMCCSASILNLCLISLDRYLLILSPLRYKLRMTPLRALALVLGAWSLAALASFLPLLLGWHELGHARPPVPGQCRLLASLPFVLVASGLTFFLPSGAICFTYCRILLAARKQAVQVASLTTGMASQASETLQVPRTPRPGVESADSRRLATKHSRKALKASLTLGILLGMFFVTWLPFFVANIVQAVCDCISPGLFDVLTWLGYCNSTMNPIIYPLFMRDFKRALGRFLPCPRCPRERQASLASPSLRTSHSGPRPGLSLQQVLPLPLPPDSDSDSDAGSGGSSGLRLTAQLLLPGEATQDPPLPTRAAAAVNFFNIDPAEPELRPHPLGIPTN
Sequence of D(2) dopamine receptor (P14416 whole entry): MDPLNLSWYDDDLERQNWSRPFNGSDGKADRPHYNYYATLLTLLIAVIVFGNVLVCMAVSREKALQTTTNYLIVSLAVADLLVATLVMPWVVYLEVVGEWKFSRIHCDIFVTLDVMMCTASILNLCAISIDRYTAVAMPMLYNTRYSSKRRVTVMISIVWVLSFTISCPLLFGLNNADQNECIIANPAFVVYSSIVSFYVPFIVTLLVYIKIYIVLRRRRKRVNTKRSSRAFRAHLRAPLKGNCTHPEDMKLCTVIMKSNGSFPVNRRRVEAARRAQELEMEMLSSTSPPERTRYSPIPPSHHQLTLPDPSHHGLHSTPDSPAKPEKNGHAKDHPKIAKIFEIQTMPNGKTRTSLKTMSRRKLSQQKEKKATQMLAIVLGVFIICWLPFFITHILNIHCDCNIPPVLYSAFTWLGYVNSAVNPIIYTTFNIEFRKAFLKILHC

Ki [1] [µM] | Ki [2] [µM] | Structure (SMILES) | further results
0.0687 | 0.111 | COc1ccc2[nH]cc(C3CCN(CCCN4C(=O)CC(c5c[nH]c6ccc(OC)cc56)C4=O)CC3)c2c1 (stereo not drawn) | 
0.157 | 0.156 | COc1ccc2[nH]cc(C3CCN(CCCN4C(=O)CC(c5c[nH]c6ccc(F)cc56)C4=O)CC3)c2c1 (stereo not drawn) | 
0.078 |  | COc1ccc2[nH]cc(C3CCCN(CCCCN4C(=O)CC(c5c[nH]c6ccccc56)C4=O)C3)c2c1 (stereo not drawn) | 
0.122 |  | O=C1CC(c2c[nH]c3ccccc23)C(=O)N1CCCCN1CCCC(c2c[nH]c3ccccc23)C1 (stereo not drawn) | 
> 5 | 1.31 | COc1ccc2[nH]cc(C3CCN(CCN4C(=O)CC(c5c[nH]c6ccc(F)cc56)C4=O)CC3)c2c1 (stereo not drawn) | 
0.143 | 0.151 | O=C1CC(c2c[nH]c3ccc(F)cc23)C(=O)N1CCCN1CCC(c2c[nH]c3ccccc23)CC1 (stereo not drawn) | 
0.0487 | 0.142 | COc1ccc2[nH]cc(C3CC(=O)N(CCN4CCC(c5c[nH]c6ccccc56)CC4)C3=O)c2c1 (stereo not drawn) | 
 |  | CN(C)C(=O)N[C@H]1CC[C@H](CCN2CCN(c3cccc(Cl)c3Cl)CC2)CC1 [CARIPRAZINE] | Ki [3]: 0.111 µM
0.204 | 0.523 | COc1ccc2[nH]cc(C3CC(=O)N(CCCN4CCC(c5c[nH]c6ccccc56)CC4)C3=O)c2c1 (stereo not drawn) | 
0.183 |  | O=C1CC(c2c[nH]c3ccccc23)C(=O)N1CCCCN1CCCC(c2c[nH]c3ccc(F)cc23)C1 (stereo not drawn) | 
0.24 | 0.063 | COc1ccc2[nH]cc(C3CCN(CCN4C(=O)CC(c5c[nH]c6ccc(OC)cc56)C4=O)CC3)c2c1 (stereo not drawn) | 
0.007 | 0.0324 | O=C1CC(c2c[nH]c3ccc(F)cc23)C(=O)N1CCCCN1CCC(c2c[nH]c3ccc(F)cc23)CC1 (stereo not drawn) | deltaT (Mus musculus [4]): 0.2 °C; Ki [3]: 1.16 µM; deltaT (Mus musculus [5]): -2 °C; Ki [6]: 0.301 µM; half-life at 1 µM [7]: 8.6 min; deltaT (Mus musculus [8]): 0.5 °C; deltaT (Mus musculus [9]): -0.1 °C; deltaT (Mus musculus [10]): 0.3 °C; deltaT (Mus musculus [11]): 0.4 °C; Ki (D(2) dopamine receptor): 0.019 µM; deltaT (Mus musculus [12]): -0.4 °C; deltaT (Mus musculus [13]): -1 °C; deltaT (Mus musculus [14]): 0.4 °C; deltaT (Mus musculus [15]): 0.4 °C; deltaT (Mus musculus [16]): 0.4 °C; deltaT (Mus musculus [17]): 0.4 °C; deltaT (Mus musculus [18]): 0.1 °C; deltaT (Mus musculus [19]): 0.3 °C
